Measured values as given in patent publication US10022317B2, “Composition comprising an extract of herbal medicine processed by an oriental herbal medicine processing” (AMOREPACIFIC CORPORATION, priority 2013, dated 2018).

Tests used:
collagenase = assay: Collagenase expression inhibiting effect in human fibroblasts (collagenase kit, absorbance 405 nm); assay type: cell-based; details: 10^-4 M in serum-free DMEM, 24 hours, relative to non-treated group as 100
Protocol: The collagenase production inhibiting activity of the substances of Comparative Examples and Examples was compared with tocopherol and EGCG as control substances.
Human fibroblasts were seeded onto a 96-well plate holding Dulbecco's modified Eagle's medium (DMEM) comprising 2.5% fetal bovine serum, with 5,000 cells/well, and cultured until ˜90% confluency. The cells were further cultured in serum-free DMEM for 24 hours and treated with the mixture of oriental herbal medicine processed ginseng polysaccharide and green tea polysaccharide prepared in Comparative Examples 1-5 and Examples 1-6 at 10^−4 M in serum-free DMEM for 24 hours. Then the cell culture was collected.
The degree of collagenase production from the collected cell culture was measured using a commercially available collagenase kit (Amersham Pharmacia, USA). […]
Absorbance was measured at 405 nm using a spectrophotometer and the expression level of collagenase was calculated according to Equation 1. The expression level was calculated with respect to the non-treated control group. Expression level of collagenase (%)=[…]{(Absorbance of cells treated with substances of Comparative Example or Example÷Absorbance of control)×100} [Equation 1] […]

procollagen = assay: Procollagen production promoting effect in human fibroblasts (procollagen type-1 C-peptide EIA kit); assay type: cell-based; details: 10^-4 M in serum-free DMEM, 24 hours, relative to non-treated group as 100
Protocol: The procollagen production promoting activity of the substances of Comparative Examples and Examples was compared with that of vitamin C. Human fibroblasts were seeded onto a 96-well plate holding Dulbecco's modified Eagle's medium (DMEM) comprising 2.5% fetal bovine serum, with 5,000 cells/well, and cultured until ˜90% confluency. The cells were further cultured in serum-free DMEM for 24 hours and treated with the mixture of oriental herbal medicine processed ginseng polysaccharide and green tea polysaccharide prepared in Comparative Examples 1-5 and Examples 1-6 and vitamin C dissolved to 10^−4 M in serum-free DMEM for 24 hours. 24 hours later, the amount of free procollagen was measured using the procollagen type-1 C-peptide EIA kit (MK101, Takara, Japan). The level of procollagen production is given in Table 2 relative to the non-treated group as 100.

Compound | Expression level of collagenase (%) (collagenase) | Level of procollagen production (%) (procollagen)
Tocopherol | 76 | –
O=C(O[C@@H]1Cc2c(O)cc(O)cc2O[C@@H]1c1cc(O)c(O)c(O)c1)c1cc(O)c(O)c(O)c1 [EGCG] | 63 | –
O=C1O[C@H]([C@@H](O)CO)C(O)=C1O [Vitamin C] | – | 121
